From paper PMC7048748, “Anxiolytic Drug FGIN-1-27 Ameliorates Autoimmunity by Metabolic Reprogramming of Pathogenic Th17 Cells” (Scientific Reports, 2020)

How the values were obtained:
[1] = test system: experimental autoimmune encephalomyelitis (EAE); experiment: Passive EAE by adoptive transfer of treated 2D2 Th17 cells; type: in vivo, mouse
Procedure: We interrogated whether FGIN-1-27 can influence Th17 dependent pathology in vivo by using a mouse model of passive EAE in which Th17 cells are responsible for driving immuno-pathogenesis. To this end, we sorted naïve CD4^+ T cells (CD4^+Vβ11^+CD62L^hi) from spleen and lymph nodes of “2D2” T cell receptor (TCR) transgenic mice that specifically recognize myelin oligodendrocyte glycoprotein (MOG) peptide and activated them under Th17 polarizing conditions. The cultures were treated with DMSO or FGIN-1-27 during the Th17 differentiation process and cells were reactivated on day 5 for an additional 48 hours and equal numbers of 2D2 Th17 polarized cells treated either with DMSO or FGIN-1-27 were adoptively transferred to recipient mice.
(a) Immunophenotyping of 2D2 TCR transgenic CD4^+ T cells for intracellular IL-17 and IFNγ before adoptive transfer. Cultures were treated with DMSO or FGIN-1-27 during Th17 polarization process. (b) Mean clinical scores of mice following the adoptive transfer of 5 × 10^6 2D2 Th17 cells treated with DMSO or 5 × 10^6 2D2 Th17 cells treated with FGIN-1-27. […] The error bars represent SEM. (c) Mean clinical scores of T cell-deficient (Tcrb^−/−) mice following adoptive transfer of 5 × 10^6 2D2 Th17 cells treated with DMSO or 5 × 10^6 2D2 Th17 cells treated with FGIN-1-27. […] The error bars represent SEM. (d) Enumeration of total mononuclear or 2D2 CD4^+ T cells (CD4^+Vβ11^+) in spleens of mice receiving either DMSO or FGIN-1-27 treated 2D2 T cells. Cells were analyzed at the peak of EAE disease (day 15 post-transfer) by flow cytometry. The error bars represent SD. (e) Enumeration of total CNS mononuclear or CNS-infiltrating 2D2 CD4^+ T cells (CD4^+Vβ11^+) in mice receiving either DMSO or FGIN-1-27 treated 2D2 T cells. Cells were analyzed at the peak of EAE disease (day 15 post-transfer) by flow cytometry. The errors bars represent SD. (f) Intracellular cytokine staining of 2D2 CD4^+ T cells (day 15 post-transfer) for IL-17, IFNγ and GM-CSF from the CNS of mice that received either DMSO or FGIN-1-27 treated cells. The error bars represent SD.
Naïve CD4^+ T cells (CD4^+Vβ11^+CD62L^hi) were sorted from the spleens and lymph nodes of 2D2 TCR transgenic mice and polarized towards Th17 lineage in the presence of irradiated splenocytes (5:1 ratio) and 2.5 μg/ml anti-CD3 (145-2C11, BioXCell), 20 μg/ml anti-IL-4 (11B11, BioXCell), 20 μg/ml anti-IFNγ (XMG1.2, BioXCell), 30 ng/ml mIL-6 and 3 ng/ml hTGF-β1 (Miltenyi Biotec). The following day, cells were treated with either DMSO or FGIN-1-27 (10 μM) and IL-23 (10 ng/ml; R&D Systems) was added after 60 h of activation. On day 5 of culture, cells were reactivated on plates precoated with 2 μg/ml of anti-CD3 and anti-CD28 (PV1, BioXCell) for 48 h, and 5 million cells were adoptively transferred to recipient mice to induce passive-transfer EAE. Classical EAE symptoms were scored daily according to standard criteria: 0, asymptomatic; 1, flaccid tail; 2, hind-limb weakness and impaired righting ability; 3, hind-limb paralysis; 4, front- and hind-limb paralysis; 5, moribund or death.

Th17 cells = experiment: Cholesterol panel (sterols) in Th17 cells; type: cell-based, mouse; conditions: 72 hours; for 7-DHC / 7-HC / -SITO / CAMP / CHOL / COPR / CSTN: Cholestanol / DESM / LANO / LATH / SQUA / STIG / ZYMO: Cell
Procedure: Specific cholesterol precursors like desmosterol and oxysterols, such as 7β, 27-dihydroxycholesterol (7β, 27-OHC), have been identified as ligands for RORγt[21],[22] and shown to modulate Th17 differentiation. […] Next, we extended our studies to lipid metabolites and profiled the lipidome of Th17 cells treated with DMSO or FGIN-1-27. […]
(a) Indicated sterols were measured in Th17 cells treated with DMSO or FGIN-1-27 for
(1 picture or pasted object on this page, not shown here)

In the case of CCCCCCN(CCCCCC)C(=O)Cc1c(-c2ccc(F)cc2)[nH]c2ccccc12 [FGIN-1-27, N, N-di-n-hexyl 2-(4-fluorophenyl) indole-3-acetamide], the “onset and severity of EAE” value ([1]; T cell deficient (Tcrb−/−) recipient mice, p = 0.0067) is reported as “delayed onset and reduced severity of EAE”, the “2D2 CD4+ T cells recovered from the CNS” value ([1]; day 15 post-transfer) is reported as “fewer” and the “2D2 CD4+ T cells recovered from the spleens” value ([1]; day 15 post-transfer) is reported as “higher number”. The “IFNγ and GM-CSF production of CNS 2D2 CD4+ T cells” value ([1]; day 15 post-transfer) was “intact”, the “percentage and absolute numbers of IL-17 producing 2D2 CD4+ T cells from the CNS” value ([1]; day 15 post-transfer) was “significant reduction” and the “IL-17 producing 2D2 T cells before adoptive transfer” value ([1]; pre-transfer, 10 μM during Th17 polarization) was “reduced percentage of IL-17 producing cells”. The “disease symptoms (mean clinical scores)” value ([1]; recipient mice, 5 × 10^6 treated 2D2 Th17 cells, p < 0.02) was “much milder disease symptoms”, the “levels of cholesterol, its precursors and oxysterols” value (Th17 cells; vs DMSO) was “comparable” and the 7-DHC (Th17 cells) was 21.45 nMoles/billion. The 7-HC (Th17 cells) was 0.68 nMoles/billion, the “-SITO” value (Th17 cells) was 1.81 nMoles/billion and the CAMP (Th17 cells) was 4.37 nMoles/billion. The CHOL (Th17 cells) was 1426.96 nMoles/billion, the COPR (Th17 cells) was 0.37 nMoles/billion and the “CSTN: Cholestanol” value (Th17 cells) was 2.54 nMoles/billion. It also gave a DESM (Th17 cells) of 26.06 nMoles/billion, an LANO (Th17 cells) of 0.57 nMoles/billion and an LATH (Th17 cells) of 10.58 nMoles/billion. It also gave an SQUA (Th17 cells) of 13.58 nMoles/billion, an STIG (Th17 cells) of 0.09 nMoles/billion and a ZYMO (Th17 cells) of 0.37 nMoles/billion. The 7-DHC (Th17 cells; listed as FGIN2) was 29.74 nMoles/billion, the 7-HC (Th17 cells; listed as FGIN2) was 1.01 nMoles/billion and the “-SITO” value (Th17 cells; listed as FGIN2) was 66.45 nMoles/billion. For the same compound, the CAMP (Th17 cells; listed as FGIN2) was 6.00 nMoles/billion, the CHOL (Th17 cells; listed as FGIN2) was 1968.79 nMoles/billion and the COPR (Th17 cells; listed as FGIN2) was 0.04 nMoles/billion. The “CSTN: Cholestanol” value (Th17 cells; listed as FGIN2) was 5.53 nMoles/billion, the DESM (Th17 cells; listed as FGIN2) was 47.55 nMoles/billion and the LANO (Th17 cells; listed as FGIN2) was 0.96 nMoles/billion. The LATH (Th17 cells; listed as FGIN2) was 13.90 nMoles/billion, the SQUA (Th17 cells; listed as FGIN2) was 16.54 nMoles/billion and the STIG (Th17 cells; listed as FGIN2) was 8.18 nMoles/billion. The ZYMO (Th17 cells; listed as FGIN2) was 0.44 nMoles/billion, the 7-DHC (Th17 cells; listed as FGIN3) was 22.18 nMoles/billion and the 7-HC (Th17 cells; listed as FGIN3) was 1.04 nMoles/billion. For the same compound, the “-SITO” value (Th17 cells; listed as FGIN3) was 2.54 nMoles/billion, the CAMP (Th17 cells; listed as FGIN3) was 7.76 nMoles/billion and the CHOL (Th17 cells; listed as FGIN3) was 2113.85 nMoles/billion. The COPR (Th17 cells; listed as FGIN3) was 0.0757 nMoles/billion, the “CSTN: Cholestanol” value (Th17 cells; listed as FGIN3) was 4.07 nMoles/billion and the DESM (Th17 cells; listed as FGIN3) was 37.52 nMoles/billion. The LANO (Th17 cells; listed as FGIN3) was 0.93 nMoles/billion, the LATH (Th17 cells; listed as FGIN3) was 15.86 nMoles/billion and the SQUA (Th17 cells; listed as FGIN3) was 17.48 nMoles/billion. For the same compound, the STIG (Th17 cells; listed as FGIN3) was 0.73 nMoles/billion, the ZYMO (Th17 cells; listed as FGIN3) was 0.68 nMoles/billion and the 7-DHC (Th17 cells; listed as FGIN4) was 17.23 nMoles/billion. The 7-HC (Th17 cells; listed as FGIN4) was 0.75 nMoles/billion, the “-SITO” value (Th17 cells; listed as FGIN4) was 1.38 nMoles/billion and the CAMP (Th17 cells; listed as FGIN4) was 4.69 nMoles/billion. The CHOL (Th17 cells; listed as FGIN4) was 1456.01 nMoles/billion, the COPR (Th17 cells; listed as FGIN4) was 0.06 nMoles/billion and the “CSTN: Cholestanol” value (Th17 cells; listed as FGIN4) was 2.93 nMoles/billion. For the same compound, the DESM (Th17 cells; listed as FGIN4) was 26.10 nMoles/billion, the LANO (Th17 cells; listed as FGIN4) was 0.61 nMoles/billion and the LATH (Th17 cells; listed as FGIN4) was 10.88 nMoles/billion. It also gave an SQUA (Th17 cells; listed as FGIN4) of 2.92 nMoles/billion, an STIG (Th17 cells; listed as FGIN4) of 0.05 nMoles/billion and a ZYMO (Th17 cells; listed as FGIN4) of 0.40 nMoles/billion.
